Results: patent US20230122249A1, “1H-PYRAZOLO[4,3-d]PYRIMIDINE COMPOUNDS AS TOLL-LIKE RECEPTOR 7 (TLR7) AGONISTS” (BRISTOL-MYERS SQUIBB COMPANY, priority 2020, published 2023)

What was measured:
human TLR7 = molecular target: T1, human TLR7 (Homo sapiens, UniProt Q9NYK1); assay: Human TLR7 agonist activity (hTLR7 reporter) assay in HEK-Blue TLR7 cells, SEAP readout; type: cell-based; details: 18 h treatment, average where assay repeated
T1 construct: host or cells: HEK-Blue TLR7 cells (engineered human embryonic kidney cells)
T1 sequence (Q9NYK1 27-1049): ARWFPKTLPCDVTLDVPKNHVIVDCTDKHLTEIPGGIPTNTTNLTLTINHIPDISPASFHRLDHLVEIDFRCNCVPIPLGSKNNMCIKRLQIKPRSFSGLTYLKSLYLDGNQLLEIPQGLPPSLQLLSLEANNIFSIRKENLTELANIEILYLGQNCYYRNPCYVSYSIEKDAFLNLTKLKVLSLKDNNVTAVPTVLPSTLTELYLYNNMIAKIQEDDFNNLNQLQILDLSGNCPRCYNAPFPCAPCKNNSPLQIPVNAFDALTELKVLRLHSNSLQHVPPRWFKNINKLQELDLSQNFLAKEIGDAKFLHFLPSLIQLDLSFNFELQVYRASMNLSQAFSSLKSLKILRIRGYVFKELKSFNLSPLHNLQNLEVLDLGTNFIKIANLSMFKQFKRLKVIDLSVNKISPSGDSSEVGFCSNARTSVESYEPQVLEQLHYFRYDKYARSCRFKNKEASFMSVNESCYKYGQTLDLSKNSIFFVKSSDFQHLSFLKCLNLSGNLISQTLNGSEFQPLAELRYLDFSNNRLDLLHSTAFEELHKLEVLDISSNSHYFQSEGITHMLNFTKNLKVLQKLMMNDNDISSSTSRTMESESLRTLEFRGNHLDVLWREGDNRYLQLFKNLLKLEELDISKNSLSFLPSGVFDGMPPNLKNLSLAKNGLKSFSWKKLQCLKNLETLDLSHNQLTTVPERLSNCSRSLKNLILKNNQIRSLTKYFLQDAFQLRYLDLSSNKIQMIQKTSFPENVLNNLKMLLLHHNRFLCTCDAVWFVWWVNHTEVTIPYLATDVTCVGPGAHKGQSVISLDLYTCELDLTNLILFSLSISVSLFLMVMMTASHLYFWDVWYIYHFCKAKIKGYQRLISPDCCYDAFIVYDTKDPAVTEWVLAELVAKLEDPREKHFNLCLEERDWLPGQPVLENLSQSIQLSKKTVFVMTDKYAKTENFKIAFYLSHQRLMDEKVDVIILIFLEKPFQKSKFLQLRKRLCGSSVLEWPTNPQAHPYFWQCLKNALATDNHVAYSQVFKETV
Protocol: This procedure describes a method for assaying human TLR7 (hTLR7) agonist activity of the compounds disclosed in this specification.
HEK-Blue™ TLR7 cells were added to each well of a 384-well tissue-culture plate (15,000 cells per well) and incubated 16-18 h at 37° C., 5% CO2. Compounds (100 nl) were dispensed into wells containing the HEK-Blue™ TLR cells and the treated cells were incubated at 37° C., 5% CO2. After 18 h treatment ten microliters of freshly-prepared Quanti-Blue™ reagent (Invivogen) was added to each well, incubated for 30 min (37° C., 5% CO2) and SEAP levels measured using an Envision plate reader (OD=620 nm). The half maximal effective concentration values (EC50; compound concentration which induced a response halfway between the assay baseline and maximum) were calculated.

[1] = system: CD69 in human whole blood; assay: Induction of CD69 in human whole blood (hWB); type: cell-based; details: heparinized human whole blood, 17 h, CD69 surface staining; 100% set to 1 uM resiquimod; average where assay repeated
Protocol: The induction of Type I interferon (IFN) MX-1 genes and the B-cell activation marker CD69 are downstream events that occur upon activation of the TLR7 pathway. The following is a human whole blood assay that measures their induction in response to a TLR7 agonist.
Heparinized human whole blood was harvested from human subjects and treated with test TLR7 agonist compounds at 1 mM. The blood was diluted with RPMI 1640 media and Echo was used to predot 10 nL per well giving a final concentration of 1 uM (10 nL in 10 uL of blood). After mixing on a shaker for 30 sec, the plates were covered and placed in a 37° C. chamber for o/n=17 hrs. Fixing/lysis buffer was prepared (5×->1×in H2O, warm at 37° C.; Cat# BD 558049) and kept the perm buffer (on ice) for later use.
For surface markers staining (CD69): prepared surface Abs: 0.045 ul hCD14-FITC (ThermoFisher Cat # MHCD1401)+0.6 ul hCD19-ef450 (ThermoFisher Cat #48-0198-42)+1.5 ul hCD69-PE (cat# BD555531)+0.855 ul FACS buffer. Added 3 ul/well, spin1000 rpm for 1 min and mixed on shaker for 30 sec, put on ice for 30 mins. Stop stimulation after 30 minutes with 70 uL of prewarmed 1×fix/lysis buffer and use Feliex mate to resuspend (15 times, change tips for each plate) and incubate at 37° C. for 10 minutes.
Centrifuge at 2000 rpm for 5 minutes aspirate with HCS plate washer, mix on shaker for 30 sec and then wash with 70 uL in dPBS and pelleted 2 xs (2000 rpm for 5 min) and 50 ul wash in FACS buffer pelleted 1 xs(2000 rpm for 5 min). Mix on shaker for 30 sec. For Intracellular markers staining (MX-1): Add 50 ul of BD Perm buffer III and mix on shaker for 30 sec. Incubate on ice for 30 minutes (in the dark). Wash with 50 uL of FACS buffer 2×(spin @2300 rpm×5 min after perm) followed by mixing on shaker for 30 sec. Resuspended in 20 ul of FACS buffer containing MX1 antibody ( )(4812)-Alexa 647: Novus Biologicals #NBP2-43704AF647) 20 ul FACS bf+0.8 ul hlgG+0.04 ul MX-1. Spin 1000 rpm for 1 min, mix on shaker for 30 se and the samples were incubated at RT in the dark for 45 minutes followed by washing 2×FACS buffer (spin @2300 rpm×5 min after perm). Resuspend 20 ul (35 uL total per well) of FACS buffer and cover with foil and place in 4° C. to read the following day. Plates were read on iQuePlus. The results were loaded into toolset and […] curves are generated in curve master. The y-axis 100% is set to 1 uM of resiquimod.

| EC50 (human TLR7) [nM] | EC50 [1] [nM] | Compound |
| --- | --- | --- |
| 84.1 | – | COc1cc(CNC2CCC2)ccc1Cn1ncc2nc(N)nc(NCC3CC4(C3)CC4F)c21 (mixture of isomers) [Compound 115] |
| 68.1 | – | COc1cc(CNC2CCC2)ccc1Cn1ncc2nc(N)nc(NCC3CC4(C3)CC4(F)F)c21 (mixture of isomers) [Compound 136] |
| 32.4 | 4.5 | CCC[C@@H](CCO)Nc1nc(N)nc2cnn(Cc3ccc(CN4CC5(C4)CN(C(C)=O)C5)cc3OC)c12 [Compound 101] |
| 95.4 | – | CCCCNc1nc(N)nc2cnn(Cc3ccc(CN4CC5(C4)CC(F)(F)C5)cc3OC)c12 [Compound 102] |
| 62.9 | 13.5 | CCCCNc1nc(N)nc2cnn(Cc3ccc(CN4CC5(COC5)C4)cc3OC)c12 [Compound 103] |
| 138 | – | CCCCNc1nc(N)nc2cnn(Cc3ccc(CN4CC5(C4)CN(C(=O)CC(C)C)C5)cc3OC)c12 [Compound 104] |
| 60 | – | CCCCNc1nc(N)nc2cnn(Cc3ccc(CN4CC5(C4)CN(C(=O)C(C)(C)C)C5)cc3OC)c12 [Compound 105] |
| 11.6 | 24.9 | CCC[C@@H](CCO)Nc1nc(N)nc2cnn(Cc3ccc(CN4CC5(C4)CN(C(=O)C4CCC4)C5)cc3OC)c12 [Compound 106] |
| 6.6 | 9.9 | CCC[C@@H](CCO)Nc1nc(N)nc2cnn(Cc3ccc(CN4CC5(C4)CN(C(=O)C4(C)CC4)C5)cc3OC)c12 [Compound 107] |
| 50.1 | 52.9 | COc1cc(CN2CC3(C2)CN(C(C)=O)C3)ccc1Cn1ncc2nc(N)nc(NCC3CC4(CC4)C3)c21 [Compound 108] |
| 1230 | – | COc1cc(CN2CC3(C2)CN(C(C)=O)C3)ccc1Cn1ncc2nc(N)nc(NCC3CC34CC4)c21 (stereo not shown) [Compound 109] |
| 31.9 | – | CCCCNc1nc(N)nc2cnn(Cc3ccc(CN4CC5(C4)CN(C(=O)C4CCC4)C5)cc3OC)c12 [Compound 110] |
| 52.5 | 24.9 | CCCCNc1nc(N)nc2cnn(Cc3ccc(CN4CC5(C4)CN(C(=O)C4(C)CC4)C5)cc3OC)c12 [Compound 111] |
| 1.5 | 333 | CCC[C@@H](CCO)Nc1nc(N)nc2cnn(Cc3ccc(CN4CC5(CCO5)C4)cc3OC)c12 [Compound 112] |
| 4.6 | 0.5 | CCC[C@@H](CCO)Nc1nc(N)nc2cnn(Cc3ccc(CN4CC5(CCOCC5)C4)cc3OC)c12 [Compound 113] |
| 3.4 | – | CCC[C@@H](CCO)Nc1nc(N)nc2cnn(Cc3ccc(CNC4CCOCC45CCC5)cc3OC)c12 (stereo partly shown) [Compound 114] |
| 163 | – | COc1cc(CNC2CCOCC2)ccc1Cn1ncc2nc(N)nc(NCC3CC4(C3)CC4F)c21 (stereo not shown) [Compound 116] |
| 137 | – | COc1cc(CN2C[C@H]3CN(C)C[C@H]3C2)ccc1Cn1ncc2nc(N)nc(NCC3CC4(C3)CC4F)c21 (stereo partly shown) [Compound 118] |
| 262 | – | COc1cc(CN2CC3(CN(C)C3)C2)ccc1Cn1ncc2nc(N)nc(NCC3CC4(C3)CC4F)c21 (stereo not shown) [Compound 120] |
| 241 | – | COc1cc(CN2CC3(C2)CN(C(C)=O)C3)ccc1Cn1ncc2nc(N)nc(NCC3CC4(C3)CC4(F)F)c21 (stereo not shown) [Compound 122] |
| 320 | – | COc1cc(CN2CC3(C2)CN(C(C)C2(C)CC2)C3)ccc1Cn1ncc2nc(N)nc(NCC3CC4(C3)CC4(F)F)c21 (stereo not shown) [Compound 123] |

| EC50 (human TLR7) [nM] | EC50 [1] [nM] | Compound |
| --- | --- | --- |
| 193 | – | COc1cc(CN2C[C@@H]3C[C@H]2CN3)ccc1Cn1ncc2nc(N)nc(NCC3CC4(C3)CC4F)c21 (stereo partly shown) [Compound 124] |
| 59.2 | – | COc1cc(CN2C[C@H]3C[C@@H]2CN3C)ccc1Cn1ncc2nc(N)nc(NCC3CC4(C3)CC4F)c21 (stereo partly shown) [Compound 125] |
| 244 | – | COc1cc(CN2C[C@H]3CNC[C@H]3C2)ccc1Cn1ncc2nc(N)nc(NCC3CC4(C3)CC4F)c21 (stereo partly shown) [Compound 126] |
| 349 | – | COc1cc(CN2CC3(C2)CN(C(=O)C2(C)CC2)C3)ccc1Cn1ncc2nc(N)nc(NCC3CC4(C3)CC4F)c21 (stereo not shown) [Compound 128] |
| 24.4 | – | COc1cc(CNC2CCC2)ccc1Cn1ncc2nc(N)nc(NCC3CC4(CC4)C3)c21 [Compound 129] |
| 39.7 | – | COc1cc(CNC2CCOCC2)ccc1Cn1ncc2nc(N)nc(NCC3CC4(CC4)C3)c21 [Compound 130] |
| 16.6 | – | COc1cc(CN2C[C@H]3C[C@@H]2CN3C)ccc1Cn1ncc2nc(N)nc(NCC3CC4(CC4)C3)c21 [Compound 134] |
| 69.8 | – | COc1cc(CN2CC3(CCOCC3)C2)ccc1Cn1ncc2nc(N)nc(NCC3CC4(CC4)C3)c21 [Compound 135] |
| 88.1 | – | COc1cc(CNC2CCOCC2)ccc1Cn1ncc2nc(N)nc(NCC3CC4(C3)CC4(F)F)c21 (stereo not shown) [Compound 137] |
| 244 | – | COc1cc(CN2CC3(CN(C)C3)C2)ccc1Cn1ncc2nc(N)nc(NCC3CC4(C3)CC4(F)F)c21 (stereo not shown) [Compound 138] |
| 435 | – | COc1cc(CN2C[C@H]3CNC[C@H]3C2)ccc1Cn1ncc2nc(N)nc(NCC3CC4(C3)CC4(F)F)c21 (stereo partly shown) [Compound 140] |
| 49.7 | – | COc1cc(CN2C[C@H]3C[C@@H]2CN3C)ccc1Cn1ncc2nc(N)nc(NCC3CC4(C3)CC4(F)F)c21 (stereo partly shown) [Compound 142] |
| 103 | – | COc1cc(CN2CC3(CC(O)C3)C2)ccc1Cn1ncc2nc(N)nc(NCC3CC4(C3)CC4(F)F)c21 (stereo not shown) [Compound 143] |
| 69.5 | – | COc1cc(CN2CC3(CC(OC)C3)C2)ccc1Cn1ncc2nc(N)nc(NCC3CC4(C3)CC4(F)F)c21 (stereo not shown) [Compound 144] |
| 2580 | – | COc1cc(C(=O)N2CC3(CC(O)C3)C2)ccc1Cn1ncc2nc(N)nc(NCC3CC4(C3)CC4(F)F)c21 (stereo not shown) [Compound 160] |
| 354 | – | COc1cc(C(=O)N2CCOCC2)ccc1Cn1ncc2nc(N)nc(NCC3CC4(C3)CC4(F)F)c21 (stereo not shown) [Compound 161] |
| 497 | – | COc1cc(C(=O)N(C)C)ccc1Cn1ncc2nc(N)nc(NCC3CC4(C3)CC4(F)F)c21 (stereo not shown) [Compound 162] |
| 638 | – | COc1cc(C(=O)NC2CCN(C)CC2)ccc1Cn1ncc2nc(N)nc(NCC3CC4(C3)CC4(F)F)c21 (stereo not shown) [Compound 164] |
| 147 | – | COc1cc(C(=O)N2CCN(C)CC2)ccc1Cn1ncc2nc(N)nc(NCC3CC4(C3)CC4(F)F)c21 (stereo not shown) [Compound 165] |
| – | 61.9 | COc1cc(CN2CC3(C2)CN(C(C)=O)C3)ccc1Cn1ncc2nc(N)nc(NCc3cc(C)on3)c21 [Compound 212] |
